In US11673860B2, “Crystalline siponimod fumaric acid and polymorphs thereof” (TEVA PHARMACEUTICALS INTERNATIONAL GMBH, priority 2018, dated 2023):

Test: Stability of the solid state form under stress conditions (high temperature and relative humidity)
Assay type: physicochemical
Conditions: stressed conditions, e.g. high temperature and relative humidity; solid to solid phase / polymorph transformation
From the text: Pharmaceutical molecules may display solid to solid phase transformations and transformations between polymorphs; which may detected by exposure of the solid state form to stress conditions of e.g., high temperature and high relative humidity.

SMILES | thermodynamic and chemical stability of the solid state form
CCc1cc(/C(C)=N/OCc2ccc(C3CCCCC3)c(C(F)(F)F)c2)ccc1CN1CC(C(=O)O)C1.CCc1cc(/C(C)=N/OCc2ccc(C3CCCCC3)c(C(F)(F)F)c2)ccc1CN1CC(C(=O)O)C1.O=C(O)/C=C/C(=O)O [Crystalline Siponimod fumaric acid] | thermodynamically stable and steady under stressed conditions
CCc1cc(/C(C)=N/OCc2ccc(C3CCCCC3)c(C(F)(F)F)c2)ccc1CN1CC(C(=O)O)C1.CCc1cc(/C(C)=N/OCc2ccc(C3CCCCC3)c(C(F)(F)F)c2)ccc1CN1CC(C(=O)O)C1.O=C(O)/C=C/C(=O)O [crystalline Form 7 of Siponimod fumaric acid] | thermodynamically and chemical stable
